Results: US7112418B2, “Ion channel” (priority 1995, dated 2006)
Where two headings read alike, the source gives them in different places.

How the values were obtained:
[1] = molecular target: muscle type 1 sodium channel (Rattus norvegicus, UniProt P15390); settings: read-out: IC50 (TTX Sensitivity); cited from earlier work
SNS sodium channel = SNS sodium channel (Rattus norvegicus, UniProt Q62968); format: cell-based
[2] = system: Rat brain iia sodium channel; settings: read-out: IC50 (TTX Sensitivity); cited from earlier work
[3] = molecular target: mutated SNS sodium channel (SNS mutant) (Rattus norvegicus, UniProt Q62968, S356F); format: cell-based; settings: read-out: IC50 (TTX sensitivity restored)
[4] = system: DRG sodium channel transcript; test: Northern blot of adult DRG RNA from rats treated with capsaicin as neonates; format: in vivo, rat; settings: neonatal rats treated, total adult DRG RNA
Experimental: Random primed ^32P-labeled DNA Pst-Acc 1 fragment probes (50 ng, specific activity 2×10^9 c.p.m. per μg DNA) from interdomain region 1 (nucleotide position 1,478-1,892) of the SNS sodium channel nucleic acid sequence were used to probe total RNA extracted from tissues.
Total RNA was separated on 1.2% agarose-formaldehyde gels, and capillary blotted onto Hibond-N filters (Amersham). The amounts of RNA on the blot were roughly equivalent, as judged by ethidium bromide staining of ribosomal RNA and by hybridization with the ubiquitously expressed L-27 ribosomal protein transcripts. Filters were prehybridized in 50% formamide, 5×SSC containing 0.5% sodium dodecyl sulfate, 5× Denhardts solution, 100 μg/ml boiled sonicated salmon sperm DNA (average size 300 bp), 10 μg/ml poly-U and 10 μg/ml poly-C at 45° C. for 6 h. After 36 hours hybridization in the same conditions using 10^7 c.p.m. per ml hybridization probe, the filters were briefly washed in 2×SSC at room temperature, then twice with 2×SSC with 0.5% SDS at 68° C. for 15 min, followed by a 20 min wash in 0.5% SDS, 0.2×SSC at 68° C. The filters were autoradiographed overnight or for 4 days on autoradiography film (Kodak X-omat).

[5] = system: DRG sodium channel transcripts; test: RT-PCR of DRG sodium channel transcripts in DRG of neonatal animals treated with capsaicin; format: in vivo, rat; settings: 50 mg/kg on 2 consecutive days, DRG isolation 5 days later
Experimental: (§1) cDNA was synthesized with Superscript reverse transcriptase using oligo dT(12-18) primers and purified on Qiagen 5 tips. Polymerase chain reaction (PCR) was used to amplify cDNA (35 cycles, 94° C., 1 min; 55° C., 1 min; and 72° C., 1 min), and products separated on agarose gels before staining with ethidium bromide. L-27 primers (Ninkina et al. (1983) Nucleic Acids Res. 21, 3175-3182) were added to the PCR reaction 5 cycles after the start of the reaction with the DRG sodium channel specific primers which comprised

[6] = system: DRG sodium channel transcripts; test: RT-PCR of DRG sodium channel transcripts in cultured DRG neurons treated with capsaicin; format: cell-based, rat; settings: overnight 10 μM
Experimental: as §1

Chain of SNS sodium channel (Q62968 other isoform, or with tags, fused parts or gaps with the stated changes): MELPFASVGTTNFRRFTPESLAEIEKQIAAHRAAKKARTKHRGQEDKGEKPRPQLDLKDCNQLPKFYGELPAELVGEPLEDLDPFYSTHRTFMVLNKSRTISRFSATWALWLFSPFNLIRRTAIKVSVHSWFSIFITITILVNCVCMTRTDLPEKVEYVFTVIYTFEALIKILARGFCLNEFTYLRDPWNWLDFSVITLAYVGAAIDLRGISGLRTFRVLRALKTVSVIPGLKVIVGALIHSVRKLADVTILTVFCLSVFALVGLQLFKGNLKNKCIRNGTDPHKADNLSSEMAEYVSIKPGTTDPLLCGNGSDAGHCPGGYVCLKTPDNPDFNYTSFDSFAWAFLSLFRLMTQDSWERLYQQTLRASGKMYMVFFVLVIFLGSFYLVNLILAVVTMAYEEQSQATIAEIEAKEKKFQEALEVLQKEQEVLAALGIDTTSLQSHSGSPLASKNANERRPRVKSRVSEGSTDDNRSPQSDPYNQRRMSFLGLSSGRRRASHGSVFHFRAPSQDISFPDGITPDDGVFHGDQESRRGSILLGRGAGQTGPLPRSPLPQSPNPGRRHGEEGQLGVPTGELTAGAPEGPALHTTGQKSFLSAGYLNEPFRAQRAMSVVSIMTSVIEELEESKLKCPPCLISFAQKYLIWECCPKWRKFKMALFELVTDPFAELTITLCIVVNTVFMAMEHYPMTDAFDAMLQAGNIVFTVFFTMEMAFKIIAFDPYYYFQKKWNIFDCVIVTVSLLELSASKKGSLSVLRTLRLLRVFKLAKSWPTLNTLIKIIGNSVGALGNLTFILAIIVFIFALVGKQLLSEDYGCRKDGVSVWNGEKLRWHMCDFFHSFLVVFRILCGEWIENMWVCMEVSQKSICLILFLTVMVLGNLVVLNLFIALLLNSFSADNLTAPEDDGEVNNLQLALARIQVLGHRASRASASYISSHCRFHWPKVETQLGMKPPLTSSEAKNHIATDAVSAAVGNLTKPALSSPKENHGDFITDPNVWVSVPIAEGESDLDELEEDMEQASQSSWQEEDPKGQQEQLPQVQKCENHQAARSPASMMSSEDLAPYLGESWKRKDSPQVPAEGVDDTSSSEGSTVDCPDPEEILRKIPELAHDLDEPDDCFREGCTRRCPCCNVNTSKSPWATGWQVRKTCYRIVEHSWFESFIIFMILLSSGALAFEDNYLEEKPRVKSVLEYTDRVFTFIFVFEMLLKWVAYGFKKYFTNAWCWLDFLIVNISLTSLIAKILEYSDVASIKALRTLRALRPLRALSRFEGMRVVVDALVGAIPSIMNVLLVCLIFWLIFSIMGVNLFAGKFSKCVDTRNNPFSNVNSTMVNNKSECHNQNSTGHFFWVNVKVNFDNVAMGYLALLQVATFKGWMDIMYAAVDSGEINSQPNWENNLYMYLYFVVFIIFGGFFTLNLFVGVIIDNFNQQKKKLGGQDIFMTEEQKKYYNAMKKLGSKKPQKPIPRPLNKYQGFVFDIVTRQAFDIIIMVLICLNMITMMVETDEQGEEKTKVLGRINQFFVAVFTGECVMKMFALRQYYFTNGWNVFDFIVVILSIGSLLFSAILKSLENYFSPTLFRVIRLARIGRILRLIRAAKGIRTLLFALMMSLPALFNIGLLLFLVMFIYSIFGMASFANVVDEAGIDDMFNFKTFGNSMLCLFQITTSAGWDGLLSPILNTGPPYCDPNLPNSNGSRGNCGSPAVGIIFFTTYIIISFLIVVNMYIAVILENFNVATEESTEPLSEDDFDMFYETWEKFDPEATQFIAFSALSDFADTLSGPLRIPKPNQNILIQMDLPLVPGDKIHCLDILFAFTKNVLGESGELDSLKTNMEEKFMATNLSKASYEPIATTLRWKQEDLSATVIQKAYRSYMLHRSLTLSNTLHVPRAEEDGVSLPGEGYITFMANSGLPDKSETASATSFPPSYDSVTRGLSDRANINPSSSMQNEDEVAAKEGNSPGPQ
Chain of muscle type 1 sodium channel (P15390 whole entry, looked up): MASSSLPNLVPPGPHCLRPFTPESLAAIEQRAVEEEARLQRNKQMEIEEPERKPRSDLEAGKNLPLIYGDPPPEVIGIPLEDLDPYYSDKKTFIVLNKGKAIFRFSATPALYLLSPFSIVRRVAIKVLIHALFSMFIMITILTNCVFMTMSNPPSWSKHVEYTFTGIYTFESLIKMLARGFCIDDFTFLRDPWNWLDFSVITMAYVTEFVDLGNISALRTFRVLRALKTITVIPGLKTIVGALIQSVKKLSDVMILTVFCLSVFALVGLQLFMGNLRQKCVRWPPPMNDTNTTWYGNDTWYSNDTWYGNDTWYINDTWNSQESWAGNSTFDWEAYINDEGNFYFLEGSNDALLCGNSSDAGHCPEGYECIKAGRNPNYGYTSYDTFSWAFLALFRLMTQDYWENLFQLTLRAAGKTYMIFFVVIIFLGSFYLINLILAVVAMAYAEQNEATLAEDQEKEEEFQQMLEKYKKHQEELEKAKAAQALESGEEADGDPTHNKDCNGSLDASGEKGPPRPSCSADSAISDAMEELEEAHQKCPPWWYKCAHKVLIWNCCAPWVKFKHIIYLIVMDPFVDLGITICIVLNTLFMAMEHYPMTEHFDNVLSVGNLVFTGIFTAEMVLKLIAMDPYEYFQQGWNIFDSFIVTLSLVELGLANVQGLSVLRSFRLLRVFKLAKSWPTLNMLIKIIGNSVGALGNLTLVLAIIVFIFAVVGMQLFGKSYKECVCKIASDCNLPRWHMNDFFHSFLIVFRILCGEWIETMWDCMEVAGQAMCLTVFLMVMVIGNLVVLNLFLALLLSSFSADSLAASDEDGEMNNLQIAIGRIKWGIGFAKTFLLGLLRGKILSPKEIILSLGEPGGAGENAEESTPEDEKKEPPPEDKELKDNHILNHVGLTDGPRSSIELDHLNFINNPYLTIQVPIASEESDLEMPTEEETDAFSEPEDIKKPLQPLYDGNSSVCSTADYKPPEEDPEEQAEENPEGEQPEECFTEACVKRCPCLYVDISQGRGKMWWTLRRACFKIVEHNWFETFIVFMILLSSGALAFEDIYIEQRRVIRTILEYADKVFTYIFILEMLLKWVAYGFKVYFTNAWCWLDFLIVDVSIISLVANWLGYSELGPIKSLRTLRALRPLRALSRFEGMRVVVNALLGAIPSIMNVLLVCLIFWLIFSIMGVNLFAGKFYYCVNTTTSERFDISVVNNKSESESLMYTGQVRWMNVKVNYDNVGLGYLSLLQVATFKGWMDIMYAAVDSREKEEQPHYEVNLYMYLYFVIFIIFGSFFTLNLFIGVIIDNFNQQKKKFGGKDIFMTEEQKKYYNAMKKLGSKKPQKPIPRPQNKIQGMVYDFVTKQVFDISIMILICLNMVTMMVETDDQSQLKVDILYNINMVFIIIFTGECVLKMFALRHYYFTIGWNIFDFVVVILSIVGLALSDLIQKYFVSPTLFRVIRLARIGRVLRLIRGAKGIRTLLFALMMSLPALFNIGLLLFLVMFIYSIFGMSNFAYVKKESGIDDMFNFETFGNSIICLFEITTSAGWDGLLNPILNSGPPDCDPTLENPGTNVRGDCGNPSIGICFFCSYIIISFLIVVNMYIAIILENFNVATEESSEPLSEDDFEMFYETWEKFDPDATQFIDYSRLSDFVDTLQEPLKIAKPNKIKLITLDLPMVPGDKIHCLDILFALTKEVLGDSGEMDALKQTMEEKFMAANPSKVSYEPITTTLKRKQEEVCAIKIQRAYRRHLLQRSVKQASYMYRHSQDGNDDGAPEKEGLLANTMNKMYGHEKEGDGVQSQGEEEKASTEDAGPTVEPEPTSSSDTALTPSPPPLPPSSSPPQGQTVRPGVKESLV

NC1=N[C@H](O)[C@H]2[C@H]3O[C@]4(O)O[C@@H]([C@@H](O)[C@@]2(N1)[C@@H]4O)[C@]3(O)CO [TTX, tetrodotoxin]
IC50 [1]: 40 nM | block of the channel (SNS sodium channel): only partially blocked | effect on peak Na+ current (SNS sodium channel): no effect | effect on the channel (SNS sodium channel): unaffected | reduction of peak Na+ current (SNS sodium channel): 19.1±8.3% | reversibility of effect on peak Na+ current (SNS sodium channel): quickly reversible upon washout | IC50 (SNS sodium channel; read-out: IC50 (TTX Sensitivity)): 60000 nM | IC50 (SNS sodium channel; read-out: IC50 (relative insensitivity to TTX)): > 1000 nM | IC50 (SNS sodium channel; read-out: estimated half-maximal inhibitory concentration (IC50)): 59600 ± 10100 nM | IC50 [2]: 18 nM | IC50 [3]: 2.5 nM

COc1cc(CNC(=O)CCCC/C=C/C(C)C)ccc1O [capsaicin]
DRG sodium channel northern blot signal [4]: substantially reduced | DRG sodium channel signal (RT-PCR) compared with controls [5]: significant diminution | DRG sodium channel signal (RT-PCR) compared with controls [6]: significant diminution

CCN(CC)CC(=O)Nc1c(C)cccc1C [lignocaine]
maximum block of peak current (SNS sodium channel): 41.7±5.4%

O=C1NC(=O)C(c2ccccc2)(c2ccccc2)N1 [phenytoin]
effect on peak current (SNS sodium channel; 100 μM, depolarizing pulses from −60 mV to +10 mV, 1 every min): no effect
